# Test system: STAT3 phosphorylation in NCI-H1975 cells
# Assay: Cellular pSTAT3 assay in NCI-H1975 cells
# Assay type: cell-based
# Conditions: Homo sapiens, 2 hours with compound
# Procedure: NCI-H1975 cells were plated onto Costar #3701 96 or 384 well tissue-culture treated plates at 5,000 cells/well in 30 uL medium (RPMI, 10% FBS, supplemented with L-glutamine) and incubated overnight at 37° C. in 5% CO2. Phospho STAT3 signal was quantitated utilizing Cell Signaling Technology #7146B Pathscan […] STAT3 antibody pair kit, following manufacturer's instructions.
# Cells were dosed with compound and incubated at 37° C. in 5% CO2 for 2 hours, after which medium and compound were aspirated and cells lysed with 35 uL cold 1×Cell Signaling Lysis buffer and chilled at 4° C. for 1-2 hours. Lysate was incubated on STAT3 capture plates at 4° C. overnight, washed 3× with Tris-Buffered Saline with 0.05% Tween® 20 (TBST), then […] STAT3 detection antibody was applied for 2 hours. Following washing with TBST (3×), HRP-secondary antibody was applied for 2 hours. After additional washing, signal was detected using TMB and Stop solution and read at 450 nm using Tecan Infinite M100.
row,IC50 [nM],Compound
1,176,"CC[C@@H](C(=O)Nc1cccc2c(-c3nc(Nc4cn(C)nc4OC)ncc3C)c[nH]c12)N1CCN(C)CC1 [Example 43, (2S)-N-(3-{2-[(3-Methoxy-1-methyl-1H-pyrazol-4-yl)amino]-5-methylpyrimidin-4-yl}-1H-indol-7-yl)-2-(4-methylpiperazin-1-yl)butanamide]"
2,60.3,"COC[C@H](C(=O)Nc1cccc2c(-c3nc(Nc4cn(C)nc4OC)ncc3C)c[nH]c12)N1CCN(C)CC1 [Example 45, (2R)-3-methoxy-N-(3-{2-[(3-methoxy-1-methyl-1H-pyrazol-4-yl)amino]-5-methylpyrimidin-4-yl}-1H-indol-7-yl)-2-(4-methylpiperazin-1-yl)propanamide]"
3,1280,"COC[C@@H](C(=O)Nc1cccc2c(-c3nc(Nc4cn(C)nc4OC)ncc3C)c[nH]c12)N1CCN(C)CC1 [Example 46, (2S)-3-methoxy-N-(3-{2-[(3-methoxy-1-methyl-1H-pyrazol-4-yl)amino]-5-methylpyrimidin-4-yl}-1H-indol-7-yl)-2-(4-methylpiperazin-1-yl)propanamide]"
4,153,"CCOc1nn(C)cc1Nc1ncc(C)c(-c2c[nH]c3c(NC(=O)[C@@H](C)N4CCN(C)[C@@H](C)C4)cccc23)n1 [Example 31a, (2R)-2-[(3S)-3,4-dimethylpiperazin-1-yl]-N-(3-{2-[(3-ethoxy-1-methyl-1H-pyrazol-4-yl)amino]-5-methylpyrimidin-4-yl}-1H-indol-7-yl)propanamide]"
5,609,"COCCN1CCN([C@H](C)C(=O)Nc2cccc3c(-c4ccnc(Nc5cn(C)nc5OC)n4)c[nH]c23)CC1 [Example 27, (2R)-2-[4-(2-methoxyethyl)piperazin-1-yl]-N-(3-{2-[(3-methoxy-1-methyl-1H-pyrazol-4-yl)amino]pyrimidin-4-yl}-1H-indol-7-yl)propanamide]"
6,433,"CCOc1nn(C)cc1Nc1ncc(C)c(-c2c[nH]c3c(NC(=O)[C@H](CC)N4CCN(C)CC4)cccc23)n1 [Example 63, (2S)-N-(3-{2-[(3-ethoxy-1-methyl-1H-pyrazol-4-yl)amino]-5-methypyrimidin-4-yl}-1H-indol-7-yl)-2-(4-methylpiperazin-1-yl)butanamide]"
7,> 3000,"CCOc1nn(C)cc1Nc1ncc(F)c(-c2c[nH]c3c(NC(=O)[C@H](C)N4CCN(C)C[C@@H]4C)cccc23)n1 [Example 10b, (2S)-2-[(2S)-2,4-dimethylpiperazin-1-yl]-N-(3-{2-[(3-ethoxy-1-methyl-1H-pyrazol-4-yl)amino]-5-fluoropyrimidin-4-yl}-1H-indol-7-yl)propanamide]"
8,308,"COc1nn(C)cc1Nc1ncc(C)c(-c2c[nH]c3c(NC(=O)[C@H](C)N4CCN(C)CC4)cccc23)n1 [Example 33, (2S)-N-{3-[2-[(3-methoxy-1-methyl-1H-pyrazol-4-yl)amino]-5-methylpyrimidin-4-yl}-1H-indol-7-yl)-2-(4-methylpiperaizn-1-yl)propanamide]"
9,131,"COc1nn(C)cc1Nc1ncc(C)c(-c2c[nH]c3c(NC(=O)[C@@H](C)N4CCN(CCO)CC4)cccc23)n1 [Example 15, (2R)-2-[4-(2-hydroxyethyl)piperazin-1-yl]-N-(3-{2-[(3-methoxy-1-methyl-1H-pyrazol-4-yl)amino]-5-methylpyrimidin-4-yl}-1H-indol-7-yl)propanamide]"
10,155,"Cc1nn(C)cc1Nc1nccc(-c2c[nH]c3c(NC(=O)[C@@H](C)N4CCN(C)CC4)cccc23)n1 [Example 57, (2R)-N-(3-{2-[(1,3-dimethyl-1H-pyrazol-4-yl)amino]pyrimidin-4-yl}-1H-indol-7-yl)-2-(4-methylpiperaizn-1-yl)propanamide]"
11,70.3,"COc1nn(C)cc1Nc1ncc(C)c(-c2c[nH]c3c(NC(=O)[C@@H](C)N4CCN(C)[C@@H](C)C4)cccc23)n1 [Example 14, (2R)-2-[(3S)-3,4-dimethylpiperazin-1-yl]-N-(3-{2-[(3-methoxy-1-methyl-1H-pyrazol-4-yl)amino]-5-methylpyrimidin-4-yl}-1H-indol-7-yl)propanamide]"
12,> 3000,"COC[C@@H](C(=O)Nc1cccc2c(-c3nc(Nc4cn(C)nc4C)ncc3F)c[nH]c12)N1CCN(C)CC1 [Example 54, (2S)-N-{3-[2-[(1,3-dimethyl-1H-pyrazol-4-yl)amino]-5-fluoropyrimidin-4-yl}-1H-indol-7-yl)-3-methoxy-2-(4-methylpiperazin-1-yl)propanamide]"
13,116,"CCc1nn(C)cc1Nc1ncc(C)c(-c2c[nH]c3c(NC(=O)[C@@H](C)N4CCN(C)CC4)cccc23)n1 [Example 55, (2R)-N-(3-{2-[(3-ethyl-1-methyl-1H-pyrazol-4-yl)amino]-5-methylpyrimidin-4-yl}-1H-indol-7-yl)-2-(4-methylpiperazin-1-yl)propanamide]"
14,227,"COc1nn(C)cc1Nc1ncc(F)c(-c2c[nH]c3c(NC(=O)[C@@H](C)N4CCN(C)[C@H](C)C4)cccc23)n1 [Example 2, (2R)-2-[(3R)-3,4-dimethylpiperazin-1-yl]-N-(3-{5-fluoro-2-[(3-methoxy-1-methyl-1H-pyrazol-4-yl)amino]pyrimidin-4-yl}-1H-indol-7-yl)propanamide]"
15,330,"CCOc1nn(C)cc1Nc1ncc(C)c(-c2c[nH]c3c(NC(=O)[C@H](C)N4CCN(C)[C@@H](C)C4)cccc23)n1 [Example 31b, (2S)-2-[(3S)-3,4-dimethylpiperazin-1-yl]-N-(3-{2-[(3-ethoxy-1-methyl-1H-pyrazol-4-yl)amino]-5-methylpyrimidin-4-yl}-1H-indol-7-yl)propanamide]"
16,302,"COCCN1CCN([C@H](C)C(=O)Nc2cccc3c(-c4nc(Nc5cn(C)nc5OC)ncc4F)c[nH]c23)CC1 [Example 3, (2R)-N-(3-{5-fluoro-[(3-methoxy-1-methyl-1H-pyrazol-4-yl)amino]pyrimidin-4-yl}-1H-indol-7-yl)-2-[4-(2-methoxyethyl)piperazin-1-yl]propanamide]"
17,2280,"CCOc1nn(C)cc1Nc1ncc(F)c(-c2c[nH]c3c(NC(=O)[C@H](C)N4CCN(C)[C@@H](C)C4)cccc23)n1 [Example 11b, (2S)-2-[(3S)-3,4-dimethylpiperazin-1-yl]-N-(3-{2-[(3-ethoxy-1-methyl-1H-pyrazol-4-yl)amino]-5-fluoropyrimidin-4-yl}-1H-indol-7-yl)propanamide]"
18,87.2,"COc1nn(C)cc1Nc1ncc(F)c(-c2c[nH]c3c(NC(=O)[C@@H](C)N4CCN(C)[C@@H](C)C4)cccc23)n1 [Example 5, (2R)-2-[(3S)-3,4-dimethylpiperazin-1-yl]-N-(3-{5-fluoro-2-[(3-methoxy-1-methyl-1H-pyrazol-4-yl)amino]pyrimidin-4-yl}-1H-indol-7-yl)propanamide]"
19,92.3,"Cc1cnc(Nc2cn(C)nc2C)nc1-c1c[nH]c2c(NC(=O)[C@@H](C)N3CCN(C)CC3)cccc12 [Example 41, (2R)-N-(3-{2-[(1,3-dimethyl-1H-pyrazol-4-yl)amino]-5-methylpyrimidin-4-yl}-1H-indol-7-yl)-2-(4-methylpiperazin-1-yl)propanamide]"
20,531,"CCOc1nn(C)cc1Nc1ncc(F)c(-c2c[nH]c3c(NC(=O)[C@@H](C)N4CCN(C)C[C@@H]4C)cccc23)n1 [Example 10a, (2R)-2-[(2S)-2,4-dimethylpiperazin-1-yl]-N-(3-{2-[(3-ethoxy-1-methyl-1H-pyrazol-4-yl)amino]-5-fluoropyrimidin-4-yl}-1H-indol-7-yl)propanamide]"

# Source: US10167276B2, “Compounds and methods for inhibiting JAK” (Dizal (Jiangsu) Pharmaceutical Co., Ltd., priority 2015, dated 2019)
